{"source": "paper PMC3867298", "about": "(Clinical cancer research : an official journal of the …, 2010)", "origin": "cited, not measured here", "system": "renal cell carcinoma patients", "settings": "375 renal cell carcinoma patients, recommended phase 2 dose; cited from earlier work"}
{"compound": "CCN(CC)CCNC(=O)c1c(C)[nH]c(/C=C2\\C(=O)Nc3ccc(F)cc32)c1C", "note": "[sunitinib]", "values": [{"measurement": "Patients with at least 1 treatment-related dose reduction", "result": 32, "unit": "%"}]}
